Laboratory results published in PMC6199251, “Oncolysis with DTT-205 and DTT-304 generates immunological memory in cured animals” (Cell Death & Disease, 2018).

Columns and labels:
[1] = test system: caspase-3; experiment: Caspase-3 activation (immunostaining of cleaved caspase-3); format: cell-based, human; conditions: U2OS, 0.65 to 10 µM DTT peptides; staurosporine as positive control
Procedure: Fig. 3 Cell death induced by DTT-205 and DTT-304. Human osteosarcoma U2OS cells were treated with 0.65 to 10 µM DTT peptides for the indicated time and following assessed for the activation of caspase-3 (CASP3). The pan-kinase inhibitor staurosporine (STS) was used as positive control. Representative images (a, b) and quantifications of CASP3 activation (c, d) are depicted while pyknosis was assessed by measuring the decrease in Hoechst 33342-stained nuclear area (e, f) by conventional microscopy (size bar equals 10 µm; mean ± SD of triplicate assessments, Student’s t test, […], **p < 0.01, ***p < 0.001). In order to assess the cell death modality, U2OS cells were pretreated with the ferroptosis inhibitor ferrostatin-1 (FER-1), the pan-caspase inhibitor zVAD-fmk (zVAD) or the antioxidants N-actylcystein (NAC) and reduced glutathione (GSH) before the addition of 2.5 µM of DTT peptides (g, h). […] Mouse embryonic fibroblasts (MEFs) that were either wild type, single- or double knockout for the proapoptotic proteins Bax and/or Bak were treated with 0.65 to 10 µM of DTT-205 or DTT-304 and viability was assessed by means of an exclusion dye in epifluorescence microscopy (k, l; mean ± SD of triplicate assessments. Student’s t test, […], **p < 0.01, ***p < 0.001). […]

[2] = test system: U2OS cells; experiment: Lipid droplet formation (electron microscopy, Nile Red staining); format: cell-based, human; conditions: 0.65 to 10 µM, 6 h, epifluorescence microscopy
Procedure: Fig. 1 DTT peptides induce the formation of lipid droplets. Human osteosarcoma U2OS cells were treated with 2.5 µM of either DTT-205 or DTT-304 for 6 h. Cells were fixed and subjected to electron microscopy. The overview micrographs in the upper panel depict necrotic morphologies (N) of some of the treated cells and the high magnification micrographs in the lower panel show the formation of lipid droplets (L) in intact cells. Size bars equals 10 µm (upper panel) and 1 µm (lower panel). Representative images (a) and quantifications (b, c) are depicted (mean ± SD of a minimum of five view fields). The formation of lipid droplets in response to increasing doses from 0.65 to 10 µM DTT peptides was quantified by means of the lipophilic dye Nile Red at 6 h and 24 h post treatment in epifluorescence microscopy. Representative images (d) and quantifications (e, f) are shown (mean ± SD of triplicate assessments, Student’s t test, […], **p < 0.01). Temperature dependency of the lipid droplet formation was assessed by keeping the cell cultures upon treatment with 0.65 to 10 µM DTT-205 (g) and DTT-304 (h) at the indicated temperature for 6 h before Nile Red staining. […]
Figure S2. […] The formation of lipid droplets in response to increasing doses from 0.65 to 10 µM DTT-peptides was quantified by means of the lipophilic dye Nile Red in epifluorescence microscopy. […]

[3] = cited from earlier work
Source text: When added to human cancer cells, DTT-205 or DTT-304 stimulated a necrosis-like disruption of cellular morphology. […] Staining with the red fluorescent lipophilic dye Nile red confirmed the formation of lipid droplets in the cytoplasm of cells treated with DTT-205 or DTT-304 that occurred in a time and dose-dependent fas ...

Row | Compound | caspase-3 activation (fraction of cells positive for mature caspase-3 fragment) [1] | formation of lipid droplets [2] | cytotoxic potential in the presence of serum [3]
1 | CN[C@@H]1C[C@H]2O[C@@](C)([C@@H]1OC)n1c3ccccc3c3c4c(c5c6ccccc6n2c5c31)C(=O)NC4 [staurosporine] | a significant fraction of cells |  | 
2 | LTX-315 |  | but not the LTX compounds, induced lipid droplets | lost their cytotoxic potential in the presence of serum
